The source of these data is patent US9526796B2, “Peptide-based in vivo siRNA delivery system” (priority 2010, dated 2016).

The subject of the test is ApoB. The test can be described thus: Knockdown of endogenous serum ApoB in mice after co-injection of masked melittin delivery peptide and ApoB siRNA-cholesterol conjugate. In kind it is in vivo. Particulars: CDM-NAG (5×). As to the method: RNAi polynucleotide conjugates and masked melittin peptides were synthesized as described above. Six to eight week old mice (strain C57BL/6 or ICR, ˜18-20 g each) were obtained from Harlan Sprague Dawley (Indianapolis Ind.). Mice were housed at least 2 days prior to injection. Feeding was performed ad libitum with Harlan Teklad Rodent Diet (Harlan, Madison Wis.). Mice were injected with 0.2 mL solution of delivery peptide and 0.2 mL siRNA conjugates into the tail vein. For simultaneous injection of delivery peptide and siRNA, the siRNA-conjugate was added to modified peptide prior to injection and the entire amount was injected. The composition was soluble and nonaggregating in physiological conditions. Solutions were injected by infusion into the tail vein.
Mice were fasted for 4 h (16 h for rats) before serum collection by submandibular bleeding. For rats blood was collected from the jugular vein. Serum ApoB protein levels were determined by standard sandwich ELISA methods. Briefly, a polyclonal goat anti-mouse ApoB antibody and a rabbit anti-mouse ApoB antibody (Biodesign International) were used as capture and detection antibodies respectively. An HRP-conjugated goat anti-rabbit IgG antibody (Sigma) was applied afterwards to bind the ApoB/antibody complex. Absorbance of tetramethyl-benzidine (TMB, Sigma) colorimetric development was then measured by a Tecan Safire2 (Austria, Europe) microplate reader at 450 nm.
Melittin was reversibly modified with CDM-NAG as described above. The indicated amount of melittin was then co-injected with the 200 μg ApoB siRNA-cholesterol conjugate. Effect on ApoB levels were determined as described above.
Melittin was reversibly modified with CDM-NAG as described above. The indicated amount of melittin was then co-injected with 50 μg ApoB siRNA-cholesterol conjugate. Effect on ApoB levels were determined as described above.
Melittin was reversibly modified with CDM-NAG (5×) as described above. The indicated amount of melittin was then co-injected with the indicated amount of ApoB siRNA-cholesterol conjugate. Effect on ApoB levels were determined as described above.
Melittin was reversibly modified with the indicated amount of CDM-NAG as described above. 50 μg melittin was then co-injected with the 100 μg ApoB siRNA-cholesterol conjugate. Effect on ApoB levels were determined as described above.
Melittin peptides having the indicated sequence were reversibly modified with CDM-NAG (5×) as described above. The indicated amount of melittin was then co-injected with the indicated amount of ApoB siRNA-cholesterol conjugate. Effect on ApoB levels were determined as described above.
Melittin peptides containing the indicated PEG amino terminal modifications were synthesized as described above. The PEG amino terminal modified melittin peptides were then reversibly modified with 5×CDM-NAG as described above. The indicated amount of Melittin was then co-injected with the 100-200 μg ApoB siRNA-cholesterol conjugate. Effect on ApoB levels were determined as described above. Addition of PEG less than 5 kDa in size decreased toxicity of the melittin peptides.

Setting [1] is: 400 μg peptide per mouse, 100 μg siRNA per mouse.
Where [2] appears, read: 100 μg peptide per mouse, 100 μg siRNA per mouse.
Setting [3] is: 100 μg peptide per mouse, 50 μg siRNA per mouse.
Where [4] appears, read: 200 μg peptide per mouse, 200 μg siRNA per mouse.
Setting [5] is: 80 μg peptide per mouse, 100 μg siRNA per mouse.

Non-standard residues stand in square brackets, D forms with d. No end group written: not given here. Nle = CCCC[C@H](N)C(=O)O

Consider “G1L, I2L, 15L, I17L, I20L (Seq ID 43): melittin peptide derivative (LLGALLKVLATGLPTLLSWLKNKRKQ; melittin-like peptide derive from Apis florea)”, for which the percent knockdown under setting [1] is listed as 96%.
“G1L, I2Nle, I5Nle, I17Nle, I20Nle (Seq ID 44): melittin peptide derivative (L[Nle]GA[Nle]LKVLATGLPTL[Nle]SW[Nle]KNKRKQ)” returned a percent knockdown under setting [2] of 99%.
In the case of “G1L, I2V, I5V, I17V, I20V (Seq ID 45): melittin peptide derivative (LVGAVLKVLATGLPTLVSWVKNKRKQ; melittin-like peptide derive from Apis florea)”, the percent knockdown under setting [2] is recorded as 24%.
Regarding “G1L, K7H (Seq ID 20): melittin peptide derivative (LIGAILHVLATGLPTLISWIKNKRKQ; melittin-like peptide derive from Apis florea)”, the percent knockdown under setting [2] is 97%.
With “G1L, K7R (Seq ID 19): melittin peptide derivative (LIGAILRVLATGLPTLISWIKNKRKQ; melittin-like peptide derive from Apis florea)”, under setting [2], the percent knockdown was found to be 92%.
Still for that read-out and setting: next, “G1L, K7S (Seq ID 18): melittin peptide derivative (LIGAILSVLATGLPTLISWIKNKRKQ; melittin-like peptide derive from Apis florea)”: 89%; “G1L, K21A (Seq ID 28): melittin peptide derivative (YIGAILKVLATGLPTLISWIANKRKQ; melittin-like peptide derive from Apis florea)”: 95%.
“G1L, L5V, A10T, T15A Mel (1-23) (Seq ID 72): melittin peptide derivative” yielded a percent knockdown under setting [1] of 69%.
For the substance “G1L, L5V, A10T, T15A, N22G, K23E dMel (1-23) (Seq ID 73): melittin peptide derivative”, the percent knockdown under setting [1] is listed as 92%.
Same read-out and setting: the value for “G1L, Mel-KKKKK (Seq ID 67): melittin peptide derivative (LIGAILKVLATGLPTLISWIKNKRKQKKKKK; C-terminal KKKKK extension; melittin-like peptide derive from Apis florea)” was 96%.
As to “G1L, R24A (Seq ID 30): melittin peptide derivative (LIGAILKVLATGLPTLISWIKNKAKQ; melittin-like peptide derive from Apis florea)”, under setting [2], the percent knockdown stood at 87%.
Take “G1L, S18C (Seq ID 25): melittin peptide derivative (LIGAILKVLATGLPTLICWIKNKRKQ; melittin-like peptide derive from Apis florea)”: the percent knockdown under setting [2] is 93%.
“G1L, T11C dMel (Seq ID 21): melittin peptide derivative ([dL][dI]G[dA][dI][dL][dK][dV][dL][dA][dC]G[dL][dP][dT][dL][dI][dS][dW][dI][dK][dN][dK][dR][dK][dQ])”: the percent knockdown under setting [3] turned out to be 81%.
For the substance “G1L, T11C, S18C dMel (Seq ID 38): melittin peptide derivative ([dL][dI]G[dA][dI][dL][dK][dV][dL][dA][dC]G[dL][dP][dT][dL][dI][dC][dW][dI][dK][dN][dK][dR][dK][dQ]; cysteine pairing not given here)”, the percent knockdown under setting [2] is 88%.
Regarding “G1L, T15C dMel (Seq ID 24): melittin peptide derivative ([dL][dI]G[dA][dI][dL][dK][dV][dL][dA][dT]G[dL][dP][dC][dL][dI][dS][dW][dI][dK][dN][dK][dR][dK][dQ])”, the percent knockdown under setting [2] was determined as 95%.
On to “G1Nle (Seq ID 8): melittin peptide derivative ([Nle]IGAILKVLATGLPTLISWIKNKRKQ)”, for which the percent knockdown under setting [2] came out at 96%.
Where the note is “400 μg peptide per mouse, 50 μg siRNA per mouse”, “G1Nle Mel-C (Seq ID 64): melittin peptide derivative ([Nle]IGAILKVLATGLPTLISWIKNKRKQC)” gave a percent knockdown of 89%.
Under setting [2], “G1V (Seq ID 9): melittin peptide derivative (VIGAILKVLATGLPTLISWIKNKRKQ; melittin-like peptide derive from Apis florea)” had a percent knockdown of 91%.
The substance “G1W (Seq ID 10): melittin peptide derivative (WIGAILKVLATGLPTLISWIKNKRKQ; melittin-like peptide derive from Apis florea)” showed a percent knockdown under setting [4] of 96%.
Regarding “G1Y Mel-PLGIAGQC (Seq ID 66): melittin peptide derivative (YIGAILKVLATGLPTLISWIKNKRKQPLGIAGQC; C-terminal PLGIAGQC extension; melittin-like peptide derive from Apis florea)”, under setting [2], the percent knockdown was 79%.
Turning to “G1Y dMel (Seq ID 11): G1Y melittin peptide having D-form amino acids ([dY][dI]G[dA][dI][dL][dK][dV][dL][dA][dT]G[dL][dP][dT][dL][dI][dS][dW][dI][dK][dN][dK][dR][dK][dQ])”, the percent knockdown under setting [3] was 95%.
“G1Y dMel-GFKGC (Seq ID 68): melittin peptide derivative ([dY][dI]G[dA][dI][dL][dK][dV][dL][dA][dT]G[dL][dP][dT][dL][dI][dS][dW][dI][dK][dN][dK][dR][dK][dQ]GFKGC)”: the percent knockdown under setting [1] is 96%.
Still for that read-out and setting: next, “G1Y, K7A (Seq ID 17): melittin peptide derivative (YIGAILAVLATGLPTLISWIKNKRKQ; melittin-like peptide derive from Apis florea)”: 83%.
Consider “G1Y, K7A, K21A (Seq ID 35): melittin peptide derivative (YIGAILAVLATGLPTLISWIANKRKQ; melittin-like peptide derive from Apis florea)”, for which the percent knockdown under setting [2] is reported as 14%.
The substance “G1Y, K7N (Seq ID 16): melittin peptide derivative (YIGAILNVLATGLPTLISWIKNKRKQ; melittin-like peptide derive from Apis florea)” displayed a percent knockdown under setting [5] of 32%.
“G1Y, K23A (Seq ID 29): melittin peptide derivative (YIGAILKVLATGLPTLISWIKNARKQ; melittin-like peptide derive from Apis florea)” gave a percent knockdown under setting [2] of 42%.
For the substance “G1Y, K25A (Seq ID 31): melittin peptide derivative (YIGAILKVLATGLPTLISWIKNKRAQ; melittin-like peptide derive from Apis florea)”, under setting [2], the percent knockdown came out at 77%.
The substance “G1Y, Q26C (Seq ID 32): melittin peptide derivative (YIGAILKVLATGLPTLISWIKNKRKC; melittin-like peptide derive from Apis florea)” came in with a percent knockdown under setting [2] of 93%.
For “G1Y-Mel-NH2 (Seq ID 110): melittin peptide derivative (YIGAILKVLATGLPTLISWIKNKRKQ-NH2)”, the percent knockdown under setting [4] was 94%.
In turn, “G1dI (D form Ile at 1^st position, Seq ID 6): melittin peptide derivative ([dI]IGAILKVLATGLPTLISWIKNKRKQ)” gave a percent knockdown (50 μg peptide per mouse, 100 μg siRNA per mouse) of 34%.
The substance “G12L (Seq ID 13): melittin peptide derivative (GIGAILKVLATLLPTLISWIKNKRKQ; melittin-like peptide derive from Apis florea)” displayed a percent knockdown under setting [5] of 58%.
In turn, “G12W (Seq ID 14): melittin peptide derivative (GIGAILKVLATWLPTLISWIKNKRKQ; melittin-like peptide derive from Apis florea)” gave a percent knockdown under setting [5] of 51%.
